Measured values as given in BindingDB's records for doi:10.1016/s0960-894x(01)00378-x (The R. W. Johnson Pharmaceutical Research Institute, 2001).

Columns and labels:
[1] = In vitro inhibition of human platelet aggregation induced by alpha-thrombin (at a concentration of 0.15 nM)
[2] = In vitro inhibition of human platelet aggregation induced by SFLLRN-NH2 (at a concentration of 2 uM)

SMILES | IC50 [1] [nM] | IC50 [2] [nM]
NC(=O)NCCCC(NC(=O)[C@H](Cc1ccc(F)c(F)c1)NC(=O)Nc1ccc2c(CN3CCCC3)cn(Cc3c(Cl)cccc3Cl)c2c1)C(=O)NCc1ccccc1 (stereo partly drawn) [2-[(S)-2-{3-[1-(2,6-Dichloro-benzyl)-3-pyrrolidin-1-ylmethyl-1H-indol-6-yl]-ureido}-3-(3,4-difluoro-phenyl)-propionylamino]-5-ureido-pentanoic acid benzylamide] |  | 300
NC(=O)CCC(NC(=O)[C@H](Cc1ccc(F)c(F)c1)NC(=O)Nc1ccc2c(CN3CCCC3)cn(Cc3c(Cl)cccc3Cl)c2c1)C(=O)NCc1ccccc1 (stereo partly drawn) [2-[(S)-2-{3-[1-(2,6-Dichloro-benzyl)-3-pyrrolidin-1-ylmethyl-1H-indol-6-yl]-ureido}-3-(3,4-difluoro-phenyl)-propionylamino]-pentanedioic acid 5-amide 1-benzylamide] |  | 2000
NCCC(NC(=O)[C@H](Cc1ccc(F)c(F)c1)NC(=O)Nc1ccc2c(CN3CCCC3)cn(Cc3c(Cl)cccc3Cl)c2c1)C(=O)NCc1ccccc1 (stereo partly drawn) [4-Amino-N-benzyl-2-[(S)-2-{3-[1-(2,6-dichloro-benzyl)-3-pyrrolidin-1-ylmethyl-1H-indol-6-yl]-ureido}-3-(3,4-difluoro-phenyl)-propionylamino]-butyramide] | 340 | 160
NCCC[C@H](NC(=O)[C@H](Cc1ccc(F)c(F)c1)NC(=O)Nc1ccc2c(CN3CCCC3)cn(Cc3c(Cl)cccc3Cl)c2c1)C(=O)NCc1ccccc1 [(S)-5-Amino-2-[(S)-2-{3-[1-(2,6-dichloro-benzyl)-3-pyrrolidin-1-ylmethyl-1H-indol-6-yl]-ureido}-3-(3,4-difluoro-phenyl)-propionylamino]-pentanoic acid benzylamide] |  | 100
COc1ccc(C[C@H](NC(=O)Nc2ccc3c(CN4CCCCC4)cn(Cc4ccc(OC(F)(F)F)cc4)c3c2)C(=O)N[C@@H](CCCNC(=N)N)C(=O)NCC2CCCCC2)cc1 [(S)-5-Guanidino-2-((S)-3-(4-methoxy-phenyl)-2-{3-[3-piperidin-1-ylmethyl-1-(4-trifluoromethoxy-benzyl)-1H-indol-6-yl]-ureido}-propionylamino)-pentanoic acid cyclohexylmethyl-amide] | 36500 | 
COc1ccc(C[C@H](NC(=O)Nc2ccc3c(CN4CCCC4)cn(Cc4ccc(OC(F)(F)F)cc4)c3c2)C(=O)N[C@@H](CCCNC(=N)N)C(=O)NCC2CCCCC2)cc1 [(S)-5-Guanidino-2-((S)-3-(4-methoxy-phenyl)-2-{3-[3-pyrrolidin-1-ylmethyl-1-(4-trifluoromethoxy-benzyl)-1H-indol-6-yl]-ureido}-propionylamino)-pentanoic acid cyclohexylmethyl-amide] |  | 4800
NCC(NC(=O)[C@H](Cc1ccc(F)c(F)c1)NC(=O)Nc1ccc2c(CN3CCCC3)cn(Cc3c(Cl)cccc3Cl)c2c1)C(=O)NCc1ccccc1 (stereo partly drawn) [(S)-N-(2-Amino-1-benzylcarbamoyl-ethyl)-2-{3-[1-(2,6-dichloro-benzyl)-3-pyrrolidin-1-ylmethyl-1H-indol-6-yl]-ureido}-3-(3,4-difluoro-phenyl)-propionamide] |  | 500
CSCCC(NC(=O)[C@H](Cc1ccc(F)c(F)c1)NC(=O)Nc1ccc2c(CN3CCCC3)cn(Cc3c(Cl)cccc3Cl)c2c1)C(=O)NCc1ccccc1 (stereo partly drawn) [N-Benzyl-2-[(S)-2-{3-[1-(2,6-dichloro-benzyl)-3-pyrrolidin-1-ylmethyl-1H-indol-6-yl]-ureido}-3-(3,4-difluoro-phenyl)-propionylamino]-4-methylsulfanyl-butyramide] |  | 400

Results, then the compound that gave them:

IC50 [1] [nM] | IC50 [2] [nM] | SMILES
2320 | 270 | COc1ccc(C[C@H](NC(=O)Nc2ccc3c(CN4CCCC4)cn(Cc4ccc(F)cc4)c3c2)C(=O)N[C@@H](CCCNC(=N)N)C(=O)NCc2ccccc2)cc1 [2-[2-{3-[1-(4-Fluoro-benzyl)-3-pyrrolidin-1-ylmethyl-1H-indol-6-yl]-ureido}-3-(4-methoxy-phenyl)-propionylamino]-5-guanidino-pentanoic acid benzylamide]
 | 70 | N#Cc1ccc(C[C@H](NC(=O)Nc2ccc3c(CN4CCCC4)cn(Cc4c(Cl)cccc4Cl)c3c2)C(=O)N[C@@H](CCCNC(=N)N)C(=O)NCc2ccccc2)cc1 [(S)-2-((S)-3-(4-Cyano-phenyl)-2-{3-[1-(2,6-dichloro-benzyl)-3-pyrrolidin-1-ylmethyl-1H-indol-6-yl]-ureido}-propionylamino)-5-guanidino-pentanoic acid benzylamide]
620 | 600 | Cc1ccccc1Cn1cc(CN2CCCC2)c2ccc(NC(=O)N[C@@H](Cc3ccc(C#N)cc3)C(=O)N[C@@H](CCCNC(=N)N)C(=O)NCc3ccccc3)cc21 [(S)-2-((S)-3-(4-Cyano-phenyl)-2-{3-[1-(2-methyl-benzyl)-3-pyrrolidin-1-ylmethyl-1H-indol-6-yl]-ureido}-propionylamino)-5-guanidino-pentanoic acid benzylamide]
2600 | 140 | COc1ccc(C[C@H](NC(=O)Nc2ccc3c(CN4CCCC4)cn(Cc4ccccc4Cl)c3c2)C(=O)N[C@@H](CCCNC(=N)N)C(=O)NCCCc2ccccc2)cc1 [(S)-2-[(S)-2-{3-[1-(2-Chloro-benzyl)-3-pyrrolidin-1-ylmethyl-1H-indol-6-yl]-ureido}-3-(4-methoxy-phenyl)-propionylamino]-5-guanidino-pentanoic acid (3-phenyl-propyl)-amide]
 | 1000 | COc1ccc(C[C@H](NC(=O)Nc2ccc3c(CN4CCCCC4)cn(Cc4ccc(F)cc4)c3c2)C(=O)N[C@@H](CCCNC(=N)N)C(=O)NCC2CCCCC2)cc1 [(S)-2-[(S)-2-{3-[1-(4-Fluoro-benzyl)-3-piperidin-1-ylmethyl-1H-indol-6-yl]-ureido}-3-(4-methoxy-phenyl)-propionylamino]-5-guanidino-pentanoic acid cyclohexylmethyl-amide]
8500 | 600 | COc1ccc(C[C@H](NC(=O)Nc2ccc3c(CN4CCCC4)cn(Cc4ccc(F)cc4)c3c2)C(=O)N[C@@H](CCCNC(=N)N)C(=O)NCCCc2ccccc2)cc1 [(S)-2-[(S)-2-{3-[1-(4-Fluoro-benzyl)-3-pyrrolidin-1-ylmethyl-1H-indol-6-yl]-ureido}-3-(4-methoxy-phenyl)-propionylamino]-5-guanidino-pentanoic acid (3-phenyl-propyl)-amide]
4400 |  | COc1ccc(C[C@H](NC(=O)Nc2ccc3c(CN4CCCC4)cn(Cc4ccc(F)cc4)c3c2)C(=O)N[C@@H](CCCNC(=N)N)C(=O)NCC2CCCCC2)cc1 [(S)-2-[(S)-2-{3-[1-(4-Fluoro-benzyl)-3-pyrrolidin-1-ylmethyl-1H-indol-6-yl]-ureido}-3-(4-methoxy-phenyl)-propionylamino]-5-guanidino-pentanoic acid cyclohexylmethyl-amide]
 | 400 | COc1ccc(C[C@H](NC(=O)Nc2ccc3c(CN4CCC4)cn(Cc4ccc(F)cc4)c3c2)C(=O)N[C@@H](CCCNC(=N)N)C(=O)NCc2ccccc2)cc1 [(S)-2-[(S)-2-{3-[3-Azetidin-1-ylmethyl-1-(4-fluoro-benzyl)-1H-indol-6-yl]-ureido}-3-(4-methoxy-phenyl)-propionylamino]-5-guanidino-pentanoic acid benzylamide]
 | 200 | COc1ccc(C[C@H](NC(=O)Nc2ccc3c(CN4CCCC4)cn(Cc4ccccc4C)c3c2)C(=O)N[C@@H](CCCNC(=N)N)C(=O)NCCCc2ccccc2)cc1 [(S)-5-Guanidino-2-((S)-3-(4-methoxy-phenyl)-2-{3-[1-(2-methyl-benzyl)-3-pyrrolidin-1-ylmethyl-1H-indol-6-yl]-ureido}-propionylamino)-pentanoic acid (3-phenyl-propyl)-amide]
